Source: patent EP2735563A1, “Meta substituted 2-[phenoxy-phenyl]-1-[1,2,4]triazol-1-yl-ethanol compounds and their use as fungicides” (BASF SE, priority 2012, dated 2014)

Key:
Assay type in all cases: cell-based
Conditions in all cases: relative growth vs active compound-free control (100%), absorption at 405 nm 7 days after inoculation, 18°C
Botrytis cinerea = test: Activity against the grey mold Botrytis cinerea in the microtiterplate test (Botrci)
Pyricularia oryzae = system: Pyricularia oryzae
Septoria tritici = test: Activity against leaf blotch on wheat caused by Septoria tritici (Septtr), microtiter plate test

Compound	Growth (%) at 31 ppm Botrci (Botrytis cinerea) [%]	Growth (%) at 31 ppm Pyrior (Pyricularia oryzae) [%]	Growth (%) at 31 ppm Septtr (Septoria tritici) [%]
OC(Cn1cncn1)c1ccc(Oc2ccc(Cl)cc2)c(Cl)c1 (centres unmarked) [Compound I-2, 1-[3-Chloro-4-(4-chlorophenoxy)phenyl]-2-(1,2,4-triazol-1-yl)ethanol]	13	1	–
COC(C)(Cn1cncn1)c1ccc(Oc2ccc(Cl)cc2)c(Cl)c1 (centres unmarked) [Compound I-3, 1-[2-[3-chloro-4-(4-chlorophenoxy)phenyl]-2-methoxy-propyl]-1,2,4-triazole]	–	0	–
CC(O)(Cn1cncn1)c1ccc(Oc2ccc(Cl)cc2)c(Cl)c1 (centres unmarked) [Compound I-4, 2-[3-chloro-4-(4-chlorophenoxy)phenyl]-1-(1,2,4-triazol-1-yl)propan-2-ol]	17	0	–
CC(O)(Cn1cncn1)c1ccc(Oc2ccc(Cl)cc2)c(C(F)(F)F)c1 (centres unmarked) [Compound I-5]	–	0	14
COC(C)(Cn1cncn1)c1ccc(Oc2ccc(Cl)cc2)c(C(F)(F)F)c1 (centres unmarked) [Compound I-6]	–	0	–
